Values joined by “and” are separate entries in the source; they are usually repeats but may differ in a detail not shown here. Equal values may be shown once.
Assays:
Lp(a) = Lp(a) levels in LPA × ApoB100 transgenic mice; type: in vivo, mouse; set-up: Lp(a) / Diff_vs_Vehicle: unit not given here; details: for % max Lp(a) decrease (dose, mg/kg): Lp(a) transgenic mice section; for % Lp(a) max decrease / ED50: BID, 5 days dosing; for Percent_change_from_Vehicle / Diff_vs_Vehicle: Lp(a); for Diff_vs_Vehicle: group statistics; for ED50: Mus musculus, 120 h
Protocol: The LPA gene (GenBank accession code NM_005577) encoding the human apo(a) protein with a signal peptide, one KIV type 1, six KIV type 2 repeats, one each of KIV types 3–10, one KV and one protease domain was subcloned into a transgenic vector containing a mouse albumin promoter cassette and a human growth hormone polyadenylation signal. The transgenic mouse line was generated by pronucleus injection of the LPA transgenic vector. Eight individual transgenic founder mice were assessed for germline transmission of LPA by genotyping and assessment of the levels of apo(a) in the plasma. Positive founder mice were crossed with ApoB100 transgenic mice (Taconic model 1004), and the resulting mouse line nomenclature (B6.SJL-Tg(APOB)1102Sgy Tg(Alb-LPA)32Arte) was selected on the basis of the confirmation of germline transmission, the identification of LPA and huApoB100 transgenes and the levels of Lp(a) in the plasma. Mice hemizygous for both transgenes were used for pharmacology studies. The studies were conducted in female Lp(a) double transgenic mice (age around 7–17 months). Mice were housed in cages with a standard light cycle (12-h light, 12-h dark), at room temperature (22 ± 4 °C), with a relative humidity of 30–70%. Mice were identified by numbers on the cage cards. After arrival, mice were fed on a normal diet (Harlan Teklad diet 2014). Mice were randomized to treatment groups (n = 5 per group, unless otherwise noted) by body weight and baseline plasma Lp(a) concentration using a block randomized allocation tool (BRAT) for the study. In an example Lp(a) transgenic mouse study in which 66 mice were prescreened for baseline Lp(a) levels, the average Lp(a) level was 45 ± 1.8 µg ml^−1 (range 20–78 µg ml^−1). Mice were dosed with various compounds in vehicle (10 ml kg^−1, 1% hydroxyethyl cellulose (HEC), 0.25% Tween-80, Antifoam) or with vehicle alone as a control orally BID for five days. Blood samples were collected by tail bleeds at designated times, and Lp(a) levels were determined by ELISA by an investigator who was blinded to group allocation. In brief, lipoprotein particles were captured by a goat anti-Lp(a)-antibody-coated plate (Abcam ab31675, diluted 1:12,500 in HEPES-buffered saline), the plates were washed and samples were detected using an HRP-conjugated goat anti-apoB antibody (Abcam ab27622, diluted 1:3,000). Colorimetric peroxidase substrate 3,3’,5,5’-TMB was added, and the reaction was stopped using 1 N sulfuric acid. Absorbance at 450 nm was read on a Molecular Devices SpectraMax plate reader. Blood samples were collected at four hours after dosing on day 5 of dosing to confirm exposure. Full pharmacokinetic (PK) profiles were not evaluated. Concentrations of compounds were evaluated from dried blood spots through a non-Good Laboratory Practice (GLP) liquid chromatography with tandem mass spectrometry (LC–MS/MS) assay. Data were analysed in GraphPad Prism v.9.5.1

apo(a) KIV8 = target: T1, apo(a) KIV8 (Homo sapiens, UniProt P08519); experiment: ITC binding to apo(a) KIV8
T1 construct: made in house
T1 sequence (P08519 1387-1465 limits assumed): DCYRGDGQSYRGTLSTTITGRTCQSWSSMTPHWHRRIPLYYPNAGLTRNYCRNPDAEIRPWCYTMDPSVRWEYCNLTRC
Protocol: The nucleotide sequence encoding the human LPA gene (NP_005568.2) was inserted into a mammalian expression vector containing a cytomegalovirus promoter. Protein expression was performed by transient transfection of human embryonic kidney 293 (HEK293) cells cultured in serum-free medium. The culture medium was collected five days after transfection and human apo(a) protein was purified using L-lysine affinity chromatography. Nucleotide sequences encoding various KIV domains of human apo(a) and human and rat plasminogen were inserted into a pET21a Escherichia coli expression vector. Bacterial BL21(DE3) was used as the expression host, and the induction of protein expression was performed in 2× TY medium with 1 mM isopropyl β-D-1-thiogalactopyranoside at 37 °C for 5 h. Cells were collected and stored at –80 °C for subsequent protein purification and refolding. […] All protein concentrations were determined by A280.
Experiments were performed on a MicroCal Auto-iTC200 titration calorimeter (Malvern Panalytical), with a cell volume of 200 μl and a 40-μl microsyringe. […] The microsyringe was loaded with a solution of the respective compounds, with the concentration measured by quantitative nuclear magnetic resonance, and was inserted into the calorimetric cell prefilled with the respective recombinant proteins of known concentration in ITC buffer. […]

[1] = Lp(a) transgenic mice, oral BID, five days
[2] = transgenic mice, 3mpk oral BID five days, individual animal, 3 mg/kg
[3] = transgenic mice, 10mpk oral BID five days, individual animal, 10 mg/kg
[4] = transgenic mice, 30mpk oral BID five days, individual animal, 30 mg/kg
[5] = transgenic mice, 100mpk oral BID five days, individual animal, 100 mg/kg
[6] = transgenic mice, 1mpk oral BID five days, individual animal, 1 mg/kg
[7] = 1mpk, individual animals, Fig 3f data
[8] = 3mpk, individual animals, Fig 3f data
[9] = 10mpk, individual animals, Fig 3f data
[10] = 30mpk, individual animals, Fig 3f data

| Kd (apo(a) KIV8) [µM] | SMILES | % Lp(a) max decrease (Lp(a); Lp(a) transgenic mice) [%] | ED50 for Lp(a) reduction (Lp(a); [1]) [mg/kg] | Percent_change_from_Vehicle (Lp(a); [2]) | Diff_vs_Vehicle (Lp(a); transgenic mice, 3mpk) | Percent_change_from_Vehicle (Lp(a); [3]) | Diff_vs_Vehicle (Lp(a); transgenic mice, 10mpk) | Percent_change_from_Vehicle (Lp(a); [4]) | Diff_vs_Vehicle (Lp(a); transgenic mice, 30mpk) | ED50 (Lp(a); Lp(a) transgenic mice) [mg/kg] | Lp(a) (Lp(a); [2]) | Lp(a) (Lp(a); [3]) | Lp(a) (Lp(a); [4]) | Diff_vs_Vehicle (Lp(a); transgenic mice, 1mpk) | further results |
| --- | --- | --- | --- | --- | --- | --- | --- | --- | --- | --- | --- | --- | --- | --- | --- |
| – | Cl.O=C(O)[C@@H](Cc1ccccc1)[C@H]1CCNC1 [LSN3353871] | 78 | 14 | -29.9395% and -21.6818% and -23.4274% and -25.3773% and -20.1775% | -3.8966 | -56.5511% and -68.7767% and -51.9146% and -54.3536% | -9.353 | -73.0355% and -73.0232% and -55.5978% and -55.3749% and -63.9731% | -10.3714 | 14 | 11.318 and 12.652 and 12.37 and 12.055 and 12.895 | 7.019 and 5.044 and 7.768 and 7.374 | 4.356 and 4.358 and 7.173 and 7.209 and 5.82 | – | % max Lp(a) decrease (dose, mg/kg) (Lp(a); dose 20 mg/kg): 40 (20) %; maximum decrease in Lp(a) levels (Lp(a); [1]): up to 78%; Percent_change_from_Vehicle (Lp(a); [5]): -69.9343% and -77.4368% and -71.3085% and -83.0203% and -88.6967%; Diff_vs_Vehicle (Lp(a); transgenic mice, 100mpk): -12.6134; Lp(a) (Lp(a); [5]): 4.857 and 3.645 and 4.635 and 2.743 and 1.826 |
| < 0.01 | Cl.Cl.O=C(Nc1cccc(C[C@H](C(=O)O)[C@H]2CCNC2)c1)Nc1cccc(C[C@H](C(=O)O)[C@H]2CCNC2)c1 [LSN3441732] | 79 | 4 | -66.5236% and -51.6627% and -46.9156% and -38.737% and -24.3395% | -17.8805 | -76.5617% and -56.1229% and -72.4537% and -56.7885% and -51.1958% | -24.5369 | -63.8115% and -85.6659% and -79.4795% and -86.8495% and -81.3358% | -31.1209 | 4 | 13.1164 and 18.9391 and 20.799 and 24.0035 and 29.6445 | 9.183 and 17.1915 and 10.7929 and 16.9307 and 19.122 | 14.179 and 5.616 and 8.04 and 5.1525 and 7.3128 | -9.583 | % max Lp(a) decrease (dose, mg/kg) (Lp(a); dose 30 mg/kg): 79 (30) %; mean maximal inhibition of Lp(a) (Lp(a); Lp(a) transgenic mice, 30 mg kg^−1 oral BID, five days): 79%; Percent_change_from_Vehicle (Lp(a); [6]): -26.3802% and -29.1802% and -35.4498% and -52.0742% and 20.793%; Lp(a) (Lp(a); [6]): 28.845 and 27.7479 and 25.2914 and 18.7778 and 47.3279 |
| 0.022 | O=C(O)[C@@H](Cc1cccc(CN(Cc2cccc(C[C@H](C(=O)O)[C@H]3CCNC3)c2)Cc2cccc(C[C@H](C(=O)O)[C@H]3CCNC3)c2)c1)[C@H]1CCNC1 [LY3473329] | 91.2 | – | – | -6.3714 | – | -8.8948 | – | -9.8776 | 3 | – | – | – | -1.9212 | Lp(a) (Lp(a); [7]): 7.93 and 10.403 and 8.938 and 8.912 and 9.52; Percent_change_from_Vehicle (Lp(a)) (Lp(a); [7]): -28.3118% and -5.956% and -19.1994% and -19.4345% and -13.9381%; Lp(a) (Lp(a); [8]): 3.393 and 6.014 and 3.723 and 4.125 and 6.197; Percent_change_from_Vehicle (Lp(a)) (Lp(a); [8]): -69.3269% and -45.6327% and -66.3436% and -62.7095% and -43.9784%; Lp(a) (Lp(a); [9]): 2.124 and 2.374 and 3.019 and 1.686 and 1.632; Percent_change_from_Vehicle (Lp(a)) (Lp(a); [9]): -80.7988% and -78.5388% and -72.7079% and -84.7584% and -85.2465%; Lp(a) (Lp(a); [10]): 1.195 and 0.994 and 1.853 and 0.894 and 0.985; Percent_change_from_Vehicle (Lp(a)) (Lp(a); [10]): -89.1971% and -91.0141% and -83.2487% and -91.9181% and -91.0955%; % max Lp(a) decrease (dose, mg/kg) (Lp(a); dose 100 mg/kg): 91.2 (100) % |

Source: paper PMC11111404, “Discovery of potent small-molecule inhibitors of lipoprotein(a) formation” (Nature, 2024)
